# Results published in PubChem BioAssay AID248 (DTP/NCI, 2004).
# “And” between values parts separate entries of the source, which are not always exact repeats. Equal values may be shown once. Inconclusive results and toxic doses are left out.
# Tested on: L1210 leukemia ip in BDF1 mice, survival T/C
# Test: NCI In Vivo Anticancer Drug Screen. Data for tumor model L1210 Leukemia (intraperitoneal) in B6D2F1 (BDF1) mice
# Details: higher = longer survival
# Outline: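 Transplanted-tumor mice were given test agent; controls received vehicle only. Survival readings from the two groups were divided (treated over control).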
# [1] = endpoint: mean survival time, dose: 100.0 mg/kg/injection, schedule: Q04DX003 (ip), vehicle: saline with Tween-80
# [2] = endpoint: mean survival time, dose: 200.0 mg/kg/injection, schedule: Q04DX003 (ip), vehicle: saline with Tween-80
# [3] = endpoint: mean survival time, dose: 400.0 mg/kg/injection, schedule: Q04DX003 (ip), vehicle: saline with Tween-80
# [4] = endpoint: mean survival time, dose: 100.0 mg/kg/injection, schedule: Q01DX009 (ip), vehicle: saline with Tween-80
# [5] = endpoint: mean survival time, dose: 200.0 mg/kg/injection, schedule: Q01DX009 (ip), vehicle: saline with Tween-80
# [6] = endpoint: mean survival time, dose: 400.0 mg/kg/injection, schedule: Q01DX009 (ip), vehicle: saline with Tween-80
# [7] = endpoint: mean survival time, dose: 100.0 mg/kg/injection, schedule: Q04DX003 (ip), vehicle: saline
# [8] = endpoint: mean survival time, dose: 100.0 mg/kg/injection, schedule: Q01DX001 (ip), vehicle: saline
# [9] = endpoint: mean survival time, dose: 200.0 mg/kg/injection, schedule: Q01DX001 (ip), vehicle: saline
# [10] = endpoint: mean survival time, dose: 400.0 mg/kg/injection, schedule: Q01DX001 (ip), vehicle: saline
# [11] = endpoint: mean survival time, dose: 100.0 mg/kg/injection, schedule: Q01DX009 (ip), vehicle: Klucel (hydroxypropylcellulose) (HPC)
# [12] = endpoint: mean survival time, dose: 200.0 mg/kg/injection, schedule: Q01DX009 (ip), vehicle: Klucel (hydroxypropylcellulose) (HPC)
# [13] = endpoint: mean survival time, dose: 400.0 mg/kg/injection, schedule: Q01DX009 (ip), vehicle: Klucel (hydroxypropylcellulose) (HPC)
smiles,measurement,setting,value
[N-]=[N+]=C1N=CN=C1c1ncnn1Cc1ccccc1,T/C,"endpoint: mean survival time, dose: 5.0 mg/kg/injection, schedule: Q01DX001 (ip), vehicle: other",105 % of control
same,T/C,"endpoint: mean survival time, dose: 10.0 mg/kg/injection, schedule: Q01DX001 (ip), vehicle: other",97 % of control
same,T/C,"endpoint: mean survival time, dose: 20.0 mg/kg/injection, schedule: Q01DX001 (ip), vehicle: other",94 % of control
same,T/C,"endpoint: mean survival time, dose: 40.0 mg/kg/injection, schedule: Q01DX001 (ip), vehicle: other",94 % of control
same,T/C,"endpoint: mean survival time, dose: 80.0 mg/kg/injection, schedule: Q01DX001 (ip), vehicle: other",101 % of control
CC(C)(C)c1cccc(OS(=O)(=O)c2cccc([N+](=O)[O-])c2)c1,T/C,[1],95 % of control
same,T/C,[2],100 % of control
same,T/C,[3],100 % of control
CC(=O)Oc1ccc(C2OC(=O)c3ccccc3N2C(C)=O)cc1 (stereo not drawn),T/C,[4],101 % of control
same,T/C,[5],101 % of control
same,T/C,[6],92 % of control
COc1ccc(/C=C2/CCOC2=O)cc1,T/C,"endpoint: mean survival time, dose: 12.5 mg/kg/injection, schedule: Q04DX002 (ip), vehicle: Klucel (hydroxypropylcellulose) (HPC)",99 % of control
NC(=O)c1[nH]cnc1/N=N/N(CCO)CCO,T/C,"endpoint: mean survival time, dose: 50.0 mg/kg/injection, schedule: Q01DX001 (ip), vehicle: water",102 % of control
same,T/C,"endpoint: mean survival time, dose: 50.0 mg/kg/injection, schedule: Q04DX003 (ip), vehicle: water",100 % of control
same,T/C,"endpoint: mean survival time, dose: 100.0 mg/kg/injection, schedule: Q01DX001 (ip), vehicle: water",97 % of control
same,T/C,[4],105 % of control
same,T/C,[1],101 % of control
same,T/C,"endpoint: mean survival time, dose: 100.0 mg/kg/injection, schedule: Q04DX003 (ip), vehicle: water",101 % of control
same,T/C,"endpoint: mean survival time, dose: 200.0 mg/kg/injection, schedule: Q01DX001 (ip), vehicle: water",103 % of control
same,T/C,[5],105 % of control
same,T/C,[2],101 % of control
same,T/C,"endpoint: mean survival time, dose: 200.0 mg/kg/injection, schedule: Q04DX003 (ip), vehicle: water",100 % of control
same,T/C,"endpoint: mean survival time, dose: 400.0 mg/kg/injection, schedule: Q01DX001 (ip), vehicle: water",101 % of control
same,T/C,[6],100 % of control
same,T/C,[3],98 % of control
same,T/C,"endpoint: mean survival time, dose: 400.0 mg/kg/injection, schedule: Q04DX003 (ip), vehicle: water",101 % of control
CCCCCCCCCCCCC(=O)N(CCC)CCC,T/C,"endpoint: mean survival time, dose: 100.0 mg/kg/injection, schedule: Q04DX002 (ip), vehicle: Klucel (hydroxypropylcellulose) (HPC)",98 % of control
same,T/C,"endpoint: mean survival time, dose: 200.0 mg/kg/injection, schedule: Q04DX002 (ip), vehicle: Klucel (hydroxypropylcellulose) (HPC)",98 % of control
same,T/C,"endpoint: mean survival time, dose: 400.0 mg/kg/injection, schedule: Q04DX002 (ip), vehicle: Klucel (hydroxypropylcellulose) (HPC)",102 % of control
Cc1ccc(N2C(=O)C=CC2=O)cc1,T/C,"endpoint: mean survival time, dose: 100.0 mg/kg/injection, schedule: Q04DX003 (ip), vehicle: acetone",97 % of control
same,T/C,"endpoint: mean survival time, dose: 200.0 mg/kg/injection, schedule: Q04DX003 (ip), vehicle: acetone",92 % of control
same,T/C,"endpoint: mean survival time, dose: 400.0 mg/kg/injection, schedule: Q04DX003 (ip), vehicle: acetone",86 % of control
NC(CSCc1ccc([N+](=O)[O-])cc1)C(=O)O (stereo not drawn),T/C,[7],102 % of control
same,T/C,"endpoint: mean survival time, dose: 200.0 mg/kg/injection, schedule: Q04DX003 (ip), vehicle: saline",105 % of control
same,T/C,"endpoint: mean survival time, dose: 400.0 mg/kg/injection, schedule: Q04DX003 (ip), vehicle: saline",96 % of control
CC(=O)Oc1c2cccc3c(=O)c4cccc5c4-c(c23)c2c1cccc2c5=O,T/C,[1],95 % of control
same,T/C,[2],95 % of control
same,T/C,[3],101 % of control
Nc1c(Cl)cc2c(c1Cl)Cc1c-2cc(Br)c(N)c1Br,T/C,"endpoint: median survival time, dose: 5.0 mg/kg/injection, schedule: Q04DX003 (ip), vehicle: saline",121 % of control
same,T/C,"endpoint: median survival time, dose: 10.0 mg/kg/injection, schedule: Q04DX003 (ip), vehicle: saline",153 % of control
same,T/C,"endpoint: median survival time, dose: 20.0 mg/kg/injection, schedule: Q04DX003 (ip), vehicle: saline",180 % of control
same,T/C,"endpoint: median survival time, dose: 40.0 mg/kg/injection, schedule: Q04DX003 (ip), vehicle: saline",223 % of control
same,T/C,"endpoint: median survival time, dose: 50.0 mg/kg/injection, schedule: Q07DX003 (ip), vehicle: saline",211 % of control
same,T/C,"endpoint: median survival time, dose: 80.0 mg/kg/injection, schedule: Q04DX003 (ip), vehicle: saline",223 % of control
same,T/C,"endpoint: median survival time, dose: 100.0 mg/kg/injection, schedule: Q07DX003 (ip), vehicle: saline",202 % of control
same,T/C,"endpoint: median survival time, dose: 200.0 mg/kg/injection, schedule: Q07DX003 (ip), vehicle: saline",54 % of control
same,T/C,"endpoint: median survival time, dose: 400.0 mg/kg/injection, schedule: Q07DX003 (ip), vehicle: saline",53 % of control
N#CC(C#N)=Cc1csc2ccccc12,T/C,[8],93 % of control
same,T/C,[9],102 % of control
same,T/C,[10],102 % of control
O=[N+]([O-])c1ccc2nncn2c1,T/C,"endpoint: mean survival time, dose: 50.0 mg/kg/injection, schedule: Q01DX001 (ip), vehicle: saline",91 % of control
same,T/C,[8],97 % of control
same,T/C,[9],103 % of control
same,T/C,[10],101 % of control
O=C(O)c1cc2ccc3ccccc3c2s1,T/C,[8],87 % of control
same,T/C,[9],88 % of control
CCC12CCCN3C(=O)CC(C(=O)CC1)C32 (stereo not drawn),T/C,[7],107 % of control
CCOc1ccc(Br)cc1/C=C(\C#N)c1ccc([N+](=O)[O-])cc1,T/C,"endpoint: mean survival time, dose: 25.0 mg/kg/injection, schedule: Q01DX009 (ip), vehicle: saline with Tween-80",92 % of control
CC1(C)C(=O)C(O)=C[C@@]2(C)C1=CC[C@H]1[C@@H]3CC[C@H](O)[C@@]3(C)CC[C@@H]12,T/C,"endpoint: mean survival time, dose: 100.0 mg/kg/injection, schedule: Q01DX001 (sc), vehicle: steriod suspending solution",97 % of control
same,T/C,"endpoint: mean survival time, dose: 200.0 mg/kg/injection, schedule: Q01DX001 (sc), vehicle: steriod suspending solution",104 % of control
same,T/C,"endpoint: mean survival time, dose: 400.0 mg/kg/injection, schedule: Q01DX001 (sc), vehicle: steriod suspending solution",97 % of control
CC(C)(c1ccccc1)C(C(=O)O)C(=O)O,T/C,"endpoint: mean survival time, dose: 75.0 mg/kg/injection, schedule: Q01DX001 (ip), vehicle: saline",98 % of control
same,T/C,"endpoint: mean survival time, dose: 150.0 mg/kg/injection, schedule: Q01DX001 (ip), vehicle: saline",98 % of control
same,T/C,"endpoint: mean survival time, dose: 300.0 mg/kg/injection, schedule: Q01DX001 (ip), vehicle: saline",102 % of control
CCc1c(N)nc(N)nc1Nc1ccc(Cl)c(Cl)c1,T/C,"endpoint: mean survival time, dose: 100.0 mg/kg/injection, schedule: Q01DX Z (ip), vehicle: methylcellulose (MC)",96 % of control
O=C(Nc1cccc(Cl)c1Cl)Oc1ccc2ccccc2c1,T/C,[11],100 % of control
same,T/C,[12],105 % of control
same,T/C,[13],103 % of control
CC(=O)n1cc(/C=C2\N=C(c3cccc(Cl)c3)OC2=O)c2ccccc21,T/C,[11],112 % of control
same,T/C,[12],104 % of control
same,T/C,[13],101 % of control
CCOC(=O)c1ccc(NC(=O)Oc2ccc(-c3ccccc3)cc2)cc1,T/C,"endpoint: mean survival time, dose: 100.0 mg/kg/injection, schedule: Q01DX001 (ip), vehicle: saline with Tween-80",96 % of control
same,T/C,[4],97 % of control and 102 % of control
same,T/C,"endpoint: mean survival time, dose: 100.0 mg/kg/injection, schedule: Q04DX002 (ip), vehicle: saline with Tween-80",94 % of control and 100 % of control
same,T/C,"endpoint: mean survival time, dose: 200.0 mg/kg/injection, schedule: Q01DX001 (ip), vehicle: saline with Tween-80",88 % of control
same,T/C,[5],92 % of control and 97 % of control
same,T/C,"endpoint: mean survival time, dose: 200.0 mg/kg/injection, schedule: Q04DX002 (ip), vehicle: saline with Tween-80",101 % of control and 88 % of control
same,T/C,"endpoint: mean survival time, dose: 400.0 mg/kg/injection, schedule: Q01DX001 (ip), vehicle: saline with Tween-80",96 % of control
same,T/C,[6],93 % of control and 100 % of control
same,T/C,"endpoint: mean survival time, dose: 400.0 mg/kg/injection, schedule: Q04DX002 (ip), vehicle: saline with Tween-80",97 % of control
C/C=C/CC1(c2ccccc2)C(=O)NC(=S)NC1=O,T/C,"endpoint: mean survival time, dose: 75.0 mg/kg/injection, schedule: Q01DX001 (ip), vehicle: other",108 % of control
same,T/C,"endpoint: mean survival time, dose: 150.0 mg/kg/injection, schedule: Q01DX001 (ip), vehicle: other",107 % of control
same,T/C,"endpoint: mean survival time, dose: 300.0 mg/kg/injection, schedule: Q01DX001 (ip), vehicle: other",103 % of control
CN1CC(C(=O)NCc2ccccc2)CC2c3cccc4[nH]cc(c34)CC21 (stereo not drawn),T/C,"endpoint: mean survival time, dose: 25.0 mg/kg/injection, schedule: Q04DX003 (ip), vehicle: Klucel (hydroxypropylcellulose) (HPC)",96 % of control
same,T/C,"endpoint: mean survival time, dose: 50.0 mg/kg/injection, schedule: Q04DX003 (ip), vehicle: Klucel (hydroxypropylcellulose) (HPC)",91 % of control
same,T/C,"endpoint: mean survival time, dose: 100.0 mg/kg/injection, schedule: Q04DX003 (ip), vehicle: Klucel (hydroxypropylcellulose) (HPC)",96 % of control
same,T/C,"endpoint: mean survival time, dose: 200.0 mg/kg/injection, schedule: Q04DX003 (ip), vehicle: Klucel (hydroxypropylcellulose) (HPC)",89 % of control
same,T/C,"endpoint: mean survival time, dose: 400.0 mg/kg/injection, schedule: Q04DX003 (ip), vehicle: Klucel (hydroxypropylcellulose) (HPC)",91 % of control
